# Square brackets hold non-standard residues; d marks the D form. Ends that are not written are not given here. Peptide text beside a SMILES is read from it.
# What was measured:
# [1] = system: normal human dermal microvessel endothelial cells (DMECs); assay: in vitro; format: cell-based; conditions: controls and alternative prototype; data not shown
# Experimental: (§1) The effect of HPP-1 was assayed on normal human dermal microvessel endothelial cells (DMECs) under the angiogenic conditions of proliferation and cord formation. In addition, the effect of HPP-1 was assayed under the angiostatic condition of a monolayer maintained at 100% confluency (as described below).
# (§2) Briefly, dermal microvessel endothelial cells (DMECs) were grown in CADMEC Growth Media™ (Cell Applications, Inc.; San Diego, Calif.). Dermal microvessel endothelial cells were then cultured under three experimental conditions: proliferation, 30% confluency in a growth media supplemented with 500 ng/ml human recombinant vascular endothelial growth factor (VEGF; Pharmingen); no proliferation, 100% confluency in media formulated to maintain a monolayer; and cord formation, 60% confluency (required for induction) in media formulated to induce cord formation. The KS1767 and MDA-MB-435 cells were cultured as described in Arap et al., supra, 1998; Hernier et al., supra, 1994).
# (§3) Percent viability and LC50 (Table 1) were determined by apoptotic morphology as described in Ellerby et al., J. Neurosci. 17:6165-6178 (1997). For the percent viability assays, dermal microvessel endothelial cells were treated with 60 μM HPP-1 or control peptide D(KLAKLAK)2. At the indicated time points, cell culture medium was aspirated from adherent cells, and the cells were gently washed once with PBS at 37° C. Subsequently, a 20-fold dilution of the dye mixture (100 μg/ml acridine orange and 100 μg/ml ethidium bromide) in PBS was gently pipetted on the cells, which were viewed on an inverted microscope (Nikon TE 300). […] At least 500 cells were scored for a given time point in each experiment. Percent viability was calculated relative to untreated controls. The LC50 for monolayer, proliferation ([…]), and cord formation were scored at 72 hours.
# [2] = system: bacteria; conditions: Javadpour et al. 1996; cited from earlier work
# [3] = system: eukaryotic cells; assay: Cytotoxicity to eukaryotic cells (lethal concentration for 50% of a cell monolayer); format: cell-based
# Experimental: (§4) Mild swelling was evident at a concentration of 3 μM, two orders of magnitude less than the concentration required to kill eukaryotic cells (approximately 300 μM), as measured by the lethal concentration required to kill 50% of a cell monolayer (LC50; Table 1).
# as §3
# [4] = system: rat liver mitochondria; assay: Mitochondrial swelling assay (optical absorbance at 520 nm); format: biochemical
# Experimental: Mitochondrial swelling assays were performed as follows. Briefly, rat liver mitochondria were prepared as described in Ellerby et al., J. Neurosci. 17:6165-6178 (1997). Peptides were synthesized at higher than 90% purity by HPLC (DLSLARLATARLAI (SEQ ID NO: 204), Coast Scientific, Inc., San Diego, Calif.; all other peptides, AnaSpec, Inc.). Mitochondria were treated with a concentration of 10 μM D(KLAKLAK)2, 10 μM DLSLARLATARLAI negative control peptide (SEQ ID NO: 204), or 200 μM CA^+2 as a positive control. Peptides were added to mitochondria in a cuvette, and swelling was quantified by measuring the optical absorbance at 520 nm.
# [5] = system: caspase-3 processing in rat liver mitochondria suspended in normal cytosolic extract; assay: Mitochondria-dependent cell-free apoptosis (caspase-3 processing immunoblot); format: biochemical; conditions: 100 μM peptide, 2 hours, in the presence of mitochondria
# Experimental: The D(KLAKLAK)2 peptide was assayed for the ability to activate mitochondria-dependent apoptosis in a cell-free system composed of normal mitochondria suspended in normal cytosolic extract (Ellerby et al., J. Neurosci. 17:6165-6178 (1997)).
# The cell-free apoptosis assays were performed essentially as follows. The cell-free systems were reconstituted as described in Ellerby et al., supra, 1997, and, for mitochondria-dependent reactions, rat liver mitochondria were suspended in normal (non-apoptotic) cytosolic extract prepared from dermal microvessel endothelial cells. After adding peptides at a concentration of 100 μM and incubating for 2 hours at 30° C. or 37° C., mitochondria were removed by centrifugation, and the supernatant analyzed by SDS/PAGE immunoblotting on a 12% gel (Biorad; Hercules, Calif.). Proteins were transferred to PVDF membranes (Biorad) and incubated with anti-caspase-3 antibody (Santa Cruz Biotechnology; Santa Cruz, Calif.), followed by ECL detection (Amersham; Arlington Heights, Ill.).
# [6] = system: breast carcinoma xenografts; assay: Competition of phage homing by co-injected free peptide
# [7] = system: prostate cancer in TRAMP mice; assay: Treatment of TRAMP mice (transgenic prostate cancer); format: in vivo; conditions: 250 μg/dose; 10 mice per group
# Experimental: TRAMP mice develop prostate cancer under the influence of a transgene as described in Gingrich et al., supra, 1996. SMSIARL-GG-D(KLAKLAK)2 chimeric peptide was assayed for the ability to suppress cancer development in the TRAMP mice. Treatment was initiated at 12 weeks of age with mice (10 per group) receiving SMSIARL-GG-D(KLAKLAK)2 peptide or control peptide at 250 μg/dose every other week for a total of 10 doses. Four mice, which had no visible tumor, were eliminated from the SMSIARL-GG-D(KLAKLAK)2 group after dying within minutes after the injection.
# [8] = system: normal mouse prostate; assay: Prostate-selective apoptosis (TUNEL staining); format: in vivo; conditions: single dose of 250 μg peptide/mouse; 24 hours
# Experimental: The ability of the SMSIARL peptide (SEQ ID NO: 207) to deliver a pro-apoptotic peptide, D(KLAKLAK)2, to the prostate was analyzed. Briefly, SMSIARL-GG-D(KLAKLAK)2 chimeric peptide or control material was administered as a single dose of 250 μg peptide/mouse, and TUNEL staining was performed on tissues obtained 24 hours later.
# [9] = in vitro; format: cell-based; conditions: human; monolayer at 100% confluency; scored at 72 hours; means of three independent experiments; read-out: LC50 DMEC Angiostatic
# Experimental: as §1, §2, §3
# [10] = Cytotoxicity to eukaryotic cells (lethal concentration for 50% of a cell monolayer); format: cell-based; conditions: human; lethal concentration required to kill 50% of a cell monolayer; read-out: concentration required to kill eukaryotic cells (LC50)
# Experimental: as §4, §3
# [11] = system: normal human dermal microvessel endothelial cells (DMECs); format: cell-based; set-up: dose or concentration left out as unconfirmed; conditions: proliferation or cord formation
# [12] = system: dermal microvessel endothelial cells; assay: Mitochondrial morphology of proliferating DMECs (MitoTracker Red / DAPI); format: cell-based, human; conditions: 60 μM peptide, 24 hours
# Experimental: Mitochondrial morphology of dermal microvessel endothelial cells was assessed in proliferating cells after treatment with 60 μM HPP-1, […]-GG-D(KLAKLAK)2 or untargeted D(KLAKLAK)2 as follows. Dermal microvessel endothelial cells were stained after 24 and 72 hours treatment with peptide by incubation for 30 min at 37° C. with 100 nM mitochondrial stain MitoTracker Red™ (Molecular Probes, Inc., Eugene Oreg.) and 500 nM of the nuclear stain DAPI (Molecular Probes, Inc.). Mitochondria were subsequently visualized using fluorescence microscopy (100×) under an inverted microscope using a triple wavelength filter set (Nikon).
# [13] = system: prostate; assay: In vivo panning of X7 phage library, prostate versus brain; set-up: species or system mice; conditions: phage displayed peptide
# Experimental: An X7 library was injected into mice, and sequences isolated that were preferentially found in prostate as compared to brain as described in WO 99/46284.
# [14] = system: prostate tissue; assay: Prostate homing of SMSIARL phage after intravenous injection; format: in vivo, mice; conditions: coinjection
# Description: Using in vivo screening of a heptapeptide phage library, a prostate-homing peptide has been identified that concentrates in the prostate 35-fold more than in various other tissues.
# [15] = system: human 435 breast carcinoma tumor; assay: In vivo targeting of RGD phage to breast tumor; set-up: species or system nude mice; conditions: coinjection of 500 μg free peptide
# Experimental: Human 435 breast carcinoma cells were inoculated into the mammary fat pad of nude mice. When the tumors attained a diameter of about 1 cm, phage expressing a specific RGD-containing peptide were administered to the tumor bearing mouse. Similar results to those discussed below also were obtained with nude mice bearing tumors formed by implantation of human melanoma C8161 cells or by implantation of mouse B16 melanoma cells.
# 1×10^9 phage expressing the RGD-containing peptide, […] (SEQ ID NO: 1; see, Koivunen et al., supra, 1995) or control (insertless) phage were injected intravenously (iv) into the mice and allowed to circulate for 4 min. The mice then were snap frozen or perfused through the heart while under anesthesia, and various organs, including tumor, brain and kidney, were removed and the phage present in the organs was quantitated (see U.S. Pat. No. 5,622,699; Pasqualini and Ruoslahti, supra, 1996).
molecule,measurement,setting,value
CGRNC-GG-D(KLAKLAK)2 [reference compound],"effect on viability of dermal microvessel endothelial cells, compared with other peptide",[1],results similar to D(KLAKLAK) 2
CARAC-GG-D(KLAKLAK)2 [reference compound],"effect on viability of dermal microvessel endothelial cells, compared with other peptide",[1],results similar to D(KLAKLAK) 2
KLAKLAKKLAKLAK [synthetic antimicrobial 14-mer of Javadpour et al],concentration that kills bacteria relative to concentration required to kill eukaryotic cells,[2],two orders of magnitude lower
DLSLARLATARLAI [non-α-helix forming negative control peptide],lethality to eukaryotic cells,[3],not lethal
same,mitochondrial swelling,[4]; 10 μM peptide,did not induce mitochondrial swelling
same,caspase-3 processing in cell-free system,[5],inactive
CNGRC (not fully specified; cysteine pairing not given here),effect of co-injected peptide on homing of […] phage,[6],did not inhibit
same,effect of co-injected peptide on accumulation of NGR phage in tumor,[6]; phage expressing CNGRCVSGCAGRC,inhibited
CC[C@H](C)[C@H](NC(=O)[C@H](CO)NC(=O)[C@H](CCSC)NC(=O)[C@@H](N)CO)C(=O)N[C@@H](C)C(=O)N[C@@H](CCCNC(=N)N)C(=O)N[C@@H](CC(C)C)C(=O)NCC(=O)NCC(=O)N[C@H](CCCCN)C(=O)N[C@H](CC(C)C)C(=O)N[C@H](C)C(=O)N[C@H](CCCCN)C(=O)N[C@H](CC(C)C)C(=O)N[C@H](C)C(=O)N[C@H](CCCCN)C(=O)N[C@H](CCCCN)C(=O)N[C@H](CC(C)C)C(=O)N[C@H](C)C(=O)N[C@H](CCCCN)C(=O)N[C@H](CC(C)C)C(=O)N[C@H](C)C(=O)N[C@H](CCCCN)C(=O)O [SMSIARL-GG-D(KLAKLAK)2] (H-SMSIARLGG[dK][dL][dA][dK][dL][dA][dK][dK][dL][dA][dK][dL][dA][dK]-OH),mice dying within minutes after the injection,[7],Four
same,"apoptosis in other tissues such as testis, kidney or brain (TUNEL)",[8],no evidence of increased apoptosis
CC(C)C[C@@H](NC(=O)[C@H](N)CCCCN)C(=O)N[C@H](C)C(=O)N[C@H](CCCCN)C(=O)N[C@H](CC(C)C)C(=O)N[C@H](C)C(=O)N[C@H](CCCCN)C(=O)N[C@H](CCCCN)C(=O)N[C@H](CC(C)C)C(=O)N[C@H](C)C(=O)N[C@H](CCCCN)C(=O)N[C@H](CC(C)C)C(=O)N[C@H](C)C(=O)N[C@H](CCCCN)C(=O)O [D(KLAKLAK)2],CC50 at 72 h,[9],492 µM
same,CC50 at 72 h,[10],~300 µM
same,percent viability with time relative to untreated controls,[11],negligible loss in viability
same,mitochondrial swelling,[4]; 3 μM peptide,Mild swelling
same,mitochondrial swelling,[4]; 10 μM peptide,marked mitochondrial swelling
same,caspase-3 processing in cell-free system,[5],characteristic caspase-3 processing the active protease was observed
same,mitochondrial morphology,[12],remained morphologically normal
VSFLEYR [prostate homing peptide],enrichment in prostate as compared to brain,[13],17 fold
SMSIARL [prostate homing peptide],effect of coinjected synthetic peptide on prostate-selective phage homing,[14],inhibited the prostate-selective homing of phage
same,enrichment in prostate as compared to brain,[13],34 fold
GRGESP,reduction of phage in the tumor by coinjected free peptide,[15],essentially had no effect

# From patent US20010046498A1, “Chimeric prostate-homing peptides with pro-apoptotic activity” (priority 2000, published 2001)
